In PubChem BioAssay (NCI):
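Five concentrations, 48 hours, 96-well plates. GI50: concentration for 50% inhibition of growth. At the TGI there is no net growth.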

Legend:
Assay in all cases: growth of human tumour cells (NCI), 48 h
ACHN renal = test system: ACHN renal
OVCAR-8 ovarian = test system: OVCAR-8 ovarian
SR leukemia = test system: SR leukemia
RXF 393 renal = test system: RXF 393 renal
SK-MEL-28 melanoma = test system: SK-MEL-28 melanoma
HS 578T breast = test system: HS 578T breast
UACC-257 melanoma = test system: UACC-257 melanoma
U251 CNS = test system: U251 CNS
SK-MEL-5 melanoma = test system: SK-MEL-5 melanoma
NCI-H23 lung = test system: NCI-H23 lung

SMILES | GI50 (ACHN renal) | TGI (ACHN renal) | GI50 (OVCAR-8 ovarian) | TGI (OVCAR-8 ovarian) | GI50 (SR leukemia) | TGI (SR leukemia) | GI50 (RXF 393 renal) | TGI (RXF 393 renal) | GI50 (SK-MEL-28 melanoma) | TGI (SK-MEL-28 melanoma) | GI50 (HS 578T breast) | TGI (HS 578T breast) | GI50 (UACC-257 melanoma) | TGI (UACC-257 melanoma) | GI50 (U251 CNS) | TGI (U251 CNS) | GI50 (SK-MEL-5 melanoma) | TGI (SK-MEL-5 melanoma) | GI50 (NCI-H23 lung) | TGI (NCI-H23 lung)
O=C(Oc1ccc(CCl)cc1)c1ccccc1 | 0.119 µM | 0.246 µM | 0.155 µM | 0.291 µM | 0.0594 µM | 0.423 µM | 0.174 µM | 0.332 µM | 0.159 µM | 0.315 µM | 0.121 µM | 0.438 µM | 0.196 µM | 0.503 µM | 0.138 µM | 0.268 µM | 0.447 µM | 1.64 µM | 0.322 µM | 1.15 µM
OCCCCC#Cc1ccccc1C#Cc1ccccc1C(F)(F)F | 11.4 µM | 23.5 µM | 13.3 µM | 31.6 µM | 0.475 µM | 2.97 µM | 3.39 µM | 12.5 µM | 13.2 µM | 28.5 µM | 11.8 µM | 37.1 µM | 17.7 µM | 31.9 µM | 4.63 µM | 17.9 µM | 11.6 µM | 24.4 µM | 12.1 µM | 27.8 µM
Cc1ccc2c(N)c(C(=O)N[C@H]3CCc4cc(N5CC6CCC(C5)N6)ccc4C3)sc2n1 | 0.158 µM | 2.01 µM | 0.385 µM | 2.83 µM | 0.202 µM | 4.36 µM | 0.217 µM | 0.686 µM | 0.586 µM | 2.81 µM | 0.58 µM | 2.44 µM | 0.501 µM | 2.84 µM | 0.311 µM | 2.15 µM | 0.569 µM | 1.9 µM | 1.24 µM | 5.31 µM
Cc1nc2cccc(NCc3ccc(C(=O)NO)cc3)c2c(=O)n1-c1ccccc1 | 1.62 µM | 3.33 µM | 1.52 µM | 3.75 µM | 1.43 µM | > 100 µM | 1.41 µM | 2.79 µM | 1.97 µM | 3.92 µM | 3.04 µM | > 100 µM | 2.11 µM | 4.98 µM | 1.56 µM | 3.04 µM | 1.64 µM | 3.1 µM | 1.63 µM | 3.18 µM
Cc1cc2c(F)c(Oc3ncnn4cc(OC[C@@H](C)OC(=O)[C@H](C)N)c(C)c34)ccc2[nH]1 | 8.85 µM | 21.5 µM | 8.96 µM | 23.1 µM | 2.99 µM | 16 µM | 8.4 µM | 22.5 µM | 12.9 µM | 25.7 µM | 9.36 µM | 44.2 µM | 14.6 µM | 28.1 µM | 4.22 µM | 18.5 µM | 3.26 µM | 15.1 µM | 11.8 µM | 25.9 µM
COc1c(O)ccc2c1CN1CCc3cc4c(cc3C1C2)OCO4 (stereo not given) | – | > 79 µM | – | > 100 µM | – | > 100 µM | – | 50.6 µM | – | > 100 µM | – | > 100 µM | – | > 77.2 µM | – | > 100 µM | – | > 100 µM | – | > 100 µM
C[C@]12CC[C@@H]3c4ccc(O)cc4CC[C@H]3[C@@H]1CC[C@@H]2NS(=O)(=O)Cc1ccc(Cl)cc1 | 2.94 µM | 11.5 µM | 2.52 µM | 7.58 µM | 3.69 µM | > 100 µM | 2.04 µM | 6.06 µM | 2.01 µM | 4.22 µM | 2.4 µM | 7.46 µM | 2.59 µM | 8.08 µM | 3.33 µM | 11.8 µM | 1.77 µM | 3.45 µM | 2.76 µM | 10.8 µM
CC(NNC(=S)N1CCCCCC1)c1ccc2ccccc2n1 (stereo not given) | 0.66 µM | 14.6 µM | 1.06 µM | > 58.7 µM | 0.759 µM | > 48.9 µM | 4.7 µM | 21.2 µM | 5.18 µM | 40.4 µM | 14.5 µM | > 100 µM | 1.74 µM | 17 µM | 0.92 µM | 20.4 µM | 1.95 µM | 14.8 µM | 11.8 µM | > 87.1 µM
